Laboratory results from patent US20130266964A1, “METHOD OF DETECTING ENDOTHELIAL PROGENITOR CELLS” (PURDUE RESEARCH FOUNDATION, priority 2006, published 2013).

Key:
[1] = biological target: T1, cell surface folate receptors on folate receptor positive M109 cells (Mus musculus, UniProt P35846); assay: fluorescence measurement of binding to cell surface folate receptors on M109 cells in culture; format: cell-based
T1 construct: cell surface folate receptors on folate receptor positive M109 cells in culture; endogenous in cells; host or cells: M109 cells
Experimental: AlexaFluor 488 C5-maleimide (Molecular Probes, Eugene, Oreg.) was dissolved in dimethyl sulfoxide (DMSO) (0.5 mg in 50 μl DMSO). A 1.5 molar equivalent (0.57 mg) of Folate-Cys was added to the solution and mixed for 4 hours at room temperature. Folate-Cys-AlexaFluor 488 (Folate-AlexaFluor) was purified by reverse-phase HPLC on a C18 column at a flow rate of 1 ml/min. The mobile phase, consisting of 10 mM NH4HCO3 buffer, pH 7.0 (eluent A) and acetonitrile (eluent B), was maintained at a 99:1 A:B ratio for the first minute and then changed to 1:99 A:B in a linear gradient over the next 29 minutes. Folate-Cys-AlexaFluor 488 eluted at 20 minutes. The product was confirmed by mass spectroscopy and the biologic activity was confirmed by fluorescence measurement of its binding to cell surface folate receptors on folate receptor positive M109 cells in culture.
Texas Red C2-maleimide (Molecular Probes, Eugene, Oreg.) was dissolved in dimethyl sulfoxide (DMSO) (1 mg in 200 μl DMSO). A 1.4 molar equivalent (1 mg) of Folate-Cys was added to the solution and mixed for 4 hours at room temperature. […] The product was confirmed by mass spectroscopy and the biologic activity was confirmed by fluorescence measurement of its binding to cell surface folate receptors on folate receptor positive M109 cells in culture.

[2] = system: folate receptor on CD133+ Flk1+ endothelial progenitor cells; assay: folate-FITC binding to endothelial progenitor cells quantified by flow cytometry; format: cell-based, BALB/c mice; settings: 100 nM folate-FITC
Experimental: Female 6- to 8-week-old BALB/c mice were injected in the peritoneal cavity with either Complete Freund's Adjuvant (CFA; 50-100 μL), Pseudomonas aeruginosa (1×10^7 CFU (colony forming units)), or Yersinia enterocolitica (1×10^6 CFU). Cells were isolated from the peritoneal cavity by lavage with 8 mL of sterile phosphate-buffered saline (PBS) 2-4 days later. The cells were pelleted by centrifugation (400×g, 10 minutes at room temperature) and resuspended in folate-deficient RPMI-1640 media (FD-RPMI; Gibco) containing 10% heat-inactivated fetal bovine serum (FBS), penicillin (100 IU/mL) and streptomycin (100 μg/mL). Peritoneal extracted cells were seeded at densities of 1×10^6 cells/microcentrifuge tube for antibody and folate conjugate studies.
All binding experiments were conducted on ice or in a 4° C. cold room unless indicated otherwise. All antibody labeling was optimized by titration. Optimal labeling was most often achieved with a 1/1000-1/10,000 dilution of the manufacture's stock antibody solution. After cells were labeled with antibodies, the samples were washed twice with PBS to remove non-specific binding. The samples were then incubated with a 100 nM concentration of folate-FITC for 45 minutes. […] All samples were analyzed by flow cytometry using a Becton Dickinson FACS Calibur (BD, Franklin Lakes, N.J.).

T1 sequence (P35846 25-232): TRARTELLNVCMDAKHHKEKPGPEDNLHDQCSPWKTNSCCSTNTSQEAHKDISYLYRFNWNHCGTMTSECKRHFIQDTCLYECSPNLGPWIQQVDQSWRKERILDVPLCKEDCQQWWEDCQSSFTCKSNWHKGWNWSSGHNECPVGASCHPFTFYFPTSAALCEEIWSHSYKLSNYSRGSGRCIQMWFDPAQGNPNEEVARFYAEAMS

Row | SMILES | biologic activity: binding to cell surface folate receptors [1] | binding to CD133+ Flk1+ endothelial progenitor cells ([2]; 45 minutes, on ice or 4° C., absence of unlabeled folic acid) | binding to CD133+ Flk1+ endothelial progenitor cells with competition ([2]; pre-incubation with 100-fold excess of unlabeled folic acid (10 μM))
1 | N=c1ccc2c(-c3ccc(C(=O)NCCCCCN4C(=O)CC(SCC(NC(=O)CCC(NC(=O)c5ccc(NCc6cnc7nc(N)[nH]c(=O)c7n6)cc5)C(=O)O)C(=O)O)C4=O)cc3C(=O)O)c3ccc(N)c(S(=O)(=O)O)c3oc-2c1S(=O)(=O)O (stereo not shown) [Folate-Cys-AlexaFluor 488] | confirmed |  | 
2 | Nc1nc2ncc(CNc3ccc(C(=O)NC(CCC(=O)NC(CSC4CC(=O)N(CCNS(=O)(=O)c5ccc(C6=c7cc8c9c(c7Oc7c6cc6c%10c7CCCN%10CCC6)CCC[N+]=9CCC8)c(S(=O)(=O)O)c5)C4=O)C(=O)O)C(=O)O)cc3)nc2c(=O)[nH]1 (stereo not shown) [Folate-Cys-Texas Red] | confirmed |  | 
3 | Nc1nc2ncc(CNc3ccc(C(=O)NC(CCC(=O)NCCNC(=S)Nc4ccc(C(=O)O)c(-c5c6ccc(=O)cc-6oc6cc(O)ccc56)c4)C(=O)O)cc3)nc2c(=O)[nH]1 (stereo not shown) [folate-FITC] |  | bound | competed
